In test [1] the target is T1, Human recombinant DHX9 protein (Homo sapiens, UniProt Q08211).
T1 construct: purchased Viva
In words: DHX9 ATPase assay (ADP-Glo). Conditions: inflection point of dose-response curve, read-out: DHX9 Biochemical Inflection Point. In kind it is biochemical.

The test system of test [2] is circBRIP1 in HCT116 cells. Put plainly: DHX9 circBRIP1 cellular target engagement SYBR Green assay (qPCR). Type of test: cell-based. Conditions: Homo sapiens, HCT-116, circBRIP1, HCT116 cells; SyBr assay (marked ^+); read-out: DHX9 Cellular Target Engagement EC50.
The test system of another test is LS411N cells. In words: DHX9 cellular proliferation assay (CellTiter-Glo), LS411N (CRC-MSI). Type of test: cell-based. Conditions: Homo sapiens, LS-411N, LS411N; performed at Pharmaron; read-out: LS411N (CRC-MSI-H) Antiproliferative IC50.
Another test concerns NCI-H747 cells. Put plainly: DHX9 cellular proliferation assay (CellTiter-Glo), NCI-H747 (CRC-MSS). In kind it is cell-based. Conditions: Homo sapiens, NCI-H747, NCI-H747; performed at Pharmaron; read-out: H747 (CRC-MSS) Antiproliferative IC50.
Test [3] has as its system circBRIP1 in HCT116 cells. In words: DHX9 circBRIP1 cellular target engagement TaqMan Multiplex assay (qPCR). In kind it is cell-based. As to conditions: Homo sapiens, HCT-116, circBRIP1, HCT116 cells; * Taqman assay was used; read-out: DHX9 Cellular Target Engagement EC50.

T1 sequence (Q08211 whole entry): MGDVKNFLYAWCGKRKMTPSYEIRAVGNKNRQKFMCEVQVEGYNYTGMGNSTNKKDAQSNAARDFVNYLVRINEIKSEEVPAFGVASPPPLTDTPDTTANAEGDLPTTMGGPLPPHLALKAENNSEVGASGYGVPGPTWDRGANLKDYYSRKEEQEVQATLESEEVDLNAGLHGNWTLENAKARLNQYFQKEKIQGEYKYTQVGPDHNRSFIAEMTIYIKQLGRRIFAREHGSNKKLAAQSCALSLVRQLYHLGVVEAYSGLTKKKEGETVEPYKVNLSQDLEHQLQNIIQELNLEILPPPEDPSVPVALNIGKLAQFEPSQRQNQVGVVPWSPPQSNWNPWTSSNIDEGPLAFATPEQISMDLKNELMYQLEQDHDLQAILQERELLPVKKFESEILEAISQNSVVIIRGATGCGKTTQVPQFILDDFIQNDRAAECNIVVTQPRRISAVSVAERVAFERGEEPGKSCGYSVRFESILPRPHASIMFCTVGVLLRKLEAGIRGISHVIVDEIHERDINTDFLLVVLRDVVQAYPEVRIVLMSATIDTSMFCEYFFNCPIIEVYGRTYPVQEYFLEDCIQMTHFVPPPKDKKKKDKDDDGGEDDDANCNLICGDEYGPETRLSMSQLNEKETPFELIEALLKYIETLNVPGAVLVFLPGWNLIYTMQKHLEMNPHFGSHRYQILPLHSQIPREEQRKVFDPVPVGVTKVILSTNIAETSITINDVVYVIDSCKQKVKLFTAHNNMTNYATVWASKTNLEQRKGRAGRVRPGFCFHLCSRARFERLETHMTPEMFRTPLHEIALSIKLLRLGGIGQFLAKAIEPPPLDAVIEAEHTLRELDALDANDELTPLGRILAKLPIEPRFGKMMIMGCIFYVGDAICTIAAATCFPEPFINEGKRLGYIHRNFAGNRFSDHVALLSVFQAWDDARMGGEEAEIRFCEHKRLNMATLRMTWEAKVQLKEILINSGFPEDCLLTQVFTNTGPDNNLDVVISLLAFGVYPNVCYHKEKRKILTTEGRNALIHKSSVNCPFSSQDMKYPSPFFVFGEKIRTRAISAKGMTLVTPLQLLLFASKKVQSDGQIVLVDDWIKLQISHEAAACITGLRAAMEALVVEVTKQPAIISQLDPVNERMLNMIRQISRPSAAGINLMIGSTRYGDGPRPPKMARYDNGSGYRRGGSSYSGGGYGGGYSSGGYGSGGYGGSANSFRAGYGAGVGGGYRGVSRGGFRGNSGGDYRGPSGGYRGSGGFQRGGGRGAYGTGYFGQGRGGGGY

In the case of `CS(=O)(=O)Nc1cc(Cl)cc(NC(=O)c2cnn([C@H]3CCC[C@H]3c3ccccc3)c2)c1` (single isomer, unassigned) [Example 260], the IC50 in test [1] is 715 nM. Moreover, the EC50 in test [2] is greater than 10 µM.
As to `CC(C)(C)OC(=O)NC1CC2(C1)CC(n1cc(C(=O)Nc3cc(Cl)cc(NS(C)(=O)=O)c3)cn1)C2` (centres unmarked) [Example 318], the IC50 in test [1] turned out to be 207 nM. Also, the EC50 in test [2] is 4.9 µM.
`CS(=O)(=O)Nc1cc(Cl)cc(NC(=O)c2cnn([C@@H]3CCCC[C@H]3O)c2)c1` (single isomer, unassigned) [Example 150, N-(3-chloro-5-(methylsulfonamido)phenyl)-1-(trans-2-hydroxycyclohexyl)-1H-pyrazole-4-carboxamide]: the IC50 in test [1] was 147 nM. Besides, the EC50 in test [2] is 6.56 µM.
For `CS(=O)(=O)Nc1cc(Cl)cc(NC(=O)c2cnn([C@H]3CCC[C@H]3Oc3ccccc3)c2)c1` (single isomer, unassigned) [Example 259], in that order: 1940 nM and greater than 10 µM.
With `Cn1cc(C(=O)Nc2cc(Cl)cc(NS(C)(=O)=O)c2)cc1-c1ncc(N2CC(F)(F)C2)cc1F` [Example 599], the values for the IC50 in the test with LS411N cells and in the test on NCI-H747 cells were 149 nM and 4.33 µM, respectively. The EC50 in test [3] is 37.8 nM.
Turning to `Cc1cc(C(=O)Nc2cc(Cl)cc(NS(C)(=O)=O)c2)cn1-c1ncc(N2CC3(C2)CC(F)(F)C3)cn1` [Example 413], the IC50 in the test on LS411N cells amounted to 138 nM; in the test with NCI-H747 cells, 2.17 µM. The EC50 in test [3] came to 42.1 nM.
`Cc1sc(C(=O)Nc2cc(Cl)cc(NS(C)(=O)=O)c2)cc1-c1ncc(N2CCC3(C2)CC3(F)F)cc1F` (centres unmarked) [Example 480]: the figures for the IC50 in the test on LS411N cells and in the test on NCI-H747 cells were 150 nM and greater than 10 µM, respectively. Further, the EC50 in test [3] turned out to be 55.8 nM.
In the case of `Cc1cc(C(=O)Nc2cc(Cl)cc(NS(C)(=O)=O)c2)cn1-c1ncc(N2CC(C(F)(F)F)C2)cn1` [Example 694], the IC50 amounted to 80.4 nM in the test on LS411N cells and 7.77 µM in the test with NCI-H747 cells. In addition, the EC50 in test [3] worked out at 90 nM.
In the case of `Cn1cc(C(=O)Nc2cc(Cl)cc(NS(C)(=O)=O)c2)cc1-c1ncc(N2CCCC(F)(F)C2)cc1F` [Example 483], the figures for the IC50 in the test with LS411N cells and with NCI-H747 cells were 101 nM and 1.71 µM, respectively. Further, in test [3], the EC50 turned out to be 61 nM.
For `Cc1cc(C(=O)Nc2cc(Cl)cc(NS(C)(=O)=O)c2)cn1-c1ncc(OC(C)(C)C)cn1` [Example 664], in that order: 163 nM, greater than 10 µM and 71.9 nM.
For `Cc1sc(C(=O)Nc2cc(Cl)cc(NS(C)(=O)=O)c2)cc1-c1ncc(N2CCC(F)(F)CC2)cc1F` [Example 471], in that order: 72.5 nM, 8.87 µM and 27.5 nM.
With `Cn1cc(C(=O)Nc2cc(Cl)cc(NS(C)(=O)=O)c2)cc1-c1ccc(C2CCOCC2)cn1` [Example 704], the IC50 worked out at 56.9 nM with LS411N cells and 7.14 µM in the test on NCI-H747 cells. The EC50 in test [3] was 25.4 nM.
In the case of `COc1cc(N2CC(F)(F)C2)cnc1-c1cc(C(=O)Nc2cc(Cl)cc(NS(C)(=O)=O)c2)sc1C` [Example 535], the IC50 in the test with LS411N cells was 93.3 nM; in the test with NCI-H747 cells, greater than 10 µM. For the same compound, in test [3], the EC50 was 4.7 nM.
On to `Cn1cc(C(=O)Nc2cc(Cl)cc(NS(C)(=O)=O)c2)cc1-c1ncc(OC(C)(C)C)cn1` [Example 556], for which the IC50 in the test on LS411N cells turned out to be 74.9 nM; with NCI-H747 cells, 4.52 µM. In addition, in test [3], the EC50 amounted to 54.5 nM.
Consider `Cc1sc(C(=O)Nc2cc(Cl)cc(NS(C)(=O)=O)c2)cc1-c1ncc(N2CCC3(CC2)COC3)cc1F` [Example 474], for which the IC50 was 87.2 nM in the test with LS411N cells and 6.63 µM with NCI-H747 cells. The EC50 in test [3] turned out to be 13.5 nM.
For the compound `Cc1sc(C(=O)Nc2cc(Cl)cc(NS(C)(=O)=O)c2)cc1-c1ncc(C#N)cn1` [Example 585], the IC50 is 208 nM with LS411N cells and greater than 10 µM in the test with NCI-H747 cells. Also, the EC50 in test [3] is 65.1 nM.
On to `CS(=O)(=O)Nc1cc(Cl)cc(NC(=O)c2c[nH]c(-c3ncc(F)cc3F)c2)c1` [Example 560], for which the IC50 is 145 nM in the test with LS411N cells and greater than 10 µM in the test with NCI-H747 cells. The half-maximal effective concentration (EC50) in test [3] worked out at 148 nM.

The values are drawn from patent US12162867B2, “Inhibitors of RNA helicase DHX9 and uses thereof” (ACCENT THERAPEUTICS, INC., priority 2022, dated 2024).
